# In patent publication US20170056380A1, “Systems, Methods, Techniques, and Compounds in Research and Treatment of Portal Hypertension and other Conditions” (priority 2014, published 2017):
# Target: T1, eNOS (Rattus norvegicus, UniProt Q62600)
# T1 construct: endogenous in cells; host or cells: primary liver sinusoidal endothelial cells from male Sprague-Dawley rats (normal or bile-duct-ligated)
# T1 sequence (Q62600 1-1202): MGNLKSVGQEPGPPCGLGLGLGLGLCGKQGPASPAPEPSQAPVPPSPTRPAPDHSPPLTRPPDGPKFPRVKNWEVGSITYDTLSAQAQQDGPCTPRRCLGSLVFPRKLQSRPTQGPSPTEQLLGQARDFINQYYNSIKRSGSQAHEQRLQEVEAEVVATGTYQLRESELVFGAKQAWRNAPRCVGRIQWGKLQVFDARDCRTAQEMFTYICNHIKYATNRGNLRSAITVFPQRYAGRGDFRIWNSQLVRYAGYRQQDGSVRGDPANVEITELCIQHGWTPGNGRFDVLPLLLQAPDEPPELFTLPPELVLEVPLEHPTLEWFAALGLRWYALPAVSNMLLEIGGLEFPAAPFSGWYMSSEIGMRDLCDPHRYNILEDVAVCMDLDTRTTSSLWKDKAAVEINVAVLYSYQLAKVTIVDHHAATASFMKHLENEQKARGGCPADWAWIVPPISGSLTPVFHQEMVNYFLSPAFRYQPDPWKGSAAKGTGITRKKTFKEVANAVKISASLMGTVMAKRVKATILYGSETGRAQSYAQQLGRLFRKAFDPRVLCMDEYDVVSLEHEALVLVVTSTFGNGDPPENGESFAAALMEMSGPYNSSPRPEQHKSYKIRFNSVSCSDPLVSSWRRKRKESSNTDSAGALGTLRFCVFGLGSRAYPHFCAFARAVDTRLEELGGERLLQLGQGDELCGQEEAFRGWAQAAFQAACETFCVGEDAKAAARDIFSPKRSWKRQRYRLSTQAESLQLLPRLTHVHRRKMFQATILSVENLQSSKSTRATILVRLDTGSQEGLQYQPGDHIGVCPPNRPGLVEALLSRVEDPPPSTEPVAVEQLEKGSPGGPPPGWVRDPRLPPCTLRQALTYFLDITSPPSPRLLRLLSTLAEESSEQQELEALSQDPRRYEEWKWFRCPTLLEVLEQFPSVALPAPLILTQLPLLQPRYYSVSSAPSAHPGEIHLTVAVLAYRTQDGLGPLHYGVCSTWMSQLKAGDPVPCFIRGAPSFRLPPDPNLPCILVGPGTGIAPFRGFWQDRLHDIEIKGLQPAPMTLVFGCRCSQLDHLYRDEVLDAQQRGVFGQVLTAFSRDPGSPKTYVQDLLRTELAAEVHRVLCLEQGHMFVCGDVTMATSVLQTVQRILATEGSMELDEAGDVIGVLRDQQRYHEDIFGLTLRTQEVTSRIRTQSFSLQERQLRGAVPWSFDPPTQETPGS
# Experiment: NOS activity assay (conversion of L-[3H]arginine to L-[3H]citrulline) in sinusoidal endothelial cell lysates
# Assay type: cell-based
# Method: Cell isolation and culture. Sinusoidal endothelial cells were isolated from male Sprague-Dawley rats (450-500 g) (Harlan, Indianapolis, Ind.). In brief, after in situ perfusion of the liver with 20 mg/100 mg pronase (Roche Molecular Biochemicals, Indianapolis, Ind.), followed by collagenase (Worthington Biochemical, Lakewood, N.J.), dispersed cell suspensions were removed from a layered discontinuous density gradient of 8.2 and 15.6% Accudenz (Accurate Chemical and Scientific, Westbury, N.Y.), further purified by centrifugal elutriation (18 ml/min flow), and were grown in medium containing 20% serum (10% horse/calf). The purity of endothelial cells was documented by their uptake of fluorescently labeled di-l-acetoacetylated low-density lipoprotein as described (21). Only primary sinusoidal endothelial isolates of >95% purity were used for study. Experiments were performed with cells frorrr a minimum three different isolations (for all experiments).
# Animal model of liver injury and portal hypedension. Liver injury and portal hypertension were induced by performing bile duct ligation in 450- to 500-gram male retired breeder Sprague-Dawley rats as described in Liu and 20- to 25-gram male BALB/c mice. Briefly, bile duct ligation was performed by surgical isolation and ligation of the common bile duct. This model creates a portal-based fibrogenic response and portal hypertension 10-14 days after surgery (Liu). For study of injured sinusoidal endothelial cells, we used the rat model of bile duct ligation (10-14 days postsurgery); for in vivo study (primarily to conserve the use of active compound), we used the mouse model of bile duct ligation (examining portal pressure 4 wk postsurgery). In sham-operated rats or mice, laparotomy without isolation and section of the bile duct was performed. Studies were approved by the local Institutional Animal Care and Use Committees. Portal pressure measurement. Portal hypertension was induced in male BALB/c mice by bile duct ligation as above. Cicletanine (5 mg·kg^−1·day^−1) or vehicle was given by gavage as a single daily dose for 10 days before portal pressure measurement as described in Liue. In brief, mice were anesthetized, and an intravenous catheter (Becton Dickinson Vascular Access, Sandy, Utah) was introduced in the portal vein and secured with a silk tie. A calibrated low-pressure transducer (Digi-Med, Louisville, Ky.) was connected to the portal vein catheter, and portal pressure was recorded continuously using the Digi-Med Integrator 200 System (Digi-bled).
# NOS activity assay. NOS activity from sinusoidal endothelial cell lysates was assessed by measuring the conversion of L-[3H]arginine to L-[3H]citrulline as described (6) per the manufacturer's instructions (Cayman Chemical). In brief, triplicate samples of cell lysates were incubated with a reaction buffer containing 3 pmol of L-[3H]arginine (45 Ci/mmol), 0-50 μM arginine, 1 mM NADPH, 100 nM calmodulin (CaM), 2 mM CaCl2, and 30 μM BH4 in a volume of 50-100 μl at room temperature for 30 min and at 37° C. for an additional 30 min in the presence and absence of 1 mM NG-nitro-L-arginine methyl ester (L-NAME). […] Radiolabeled counts per minute of generated L-citrulline were measured and used to determine L-NAME-inhibitable NOS activity (thus, each experiment included total counts and background counts). […] The reductase activities of sinusoidal endothelial cells with or without cicletanine exposure were determined using the NADPH-dependent cytochrome c assay. […]
structure (smiles),measurement,setting,value
"Cc1ncc2c(c1O)COC2c1ccc(Cl)cc1 (stereo not shown) [cicletanine, 3-(4-chlorophenyl)-1,3-dihydro-7-hydroxy-6-methylfuro-(3,4-c) pyridine]","increase in eNOS activity, 6 h compared with 2 h",cicletanine 100 nM,greater at 6 h
same,eNOS activity above basal level at 2 and 6 h after exposure,"cicletanine 100 nM, cell lysates at 2 and 6 h",consistent increases
same,eNOS activity (conversion of arginine to citrulline),"cicletanine 100 nM, normal sinusoidal endothelial cells",robust eNOS activity
same,eNOS activity,"sinusoidal endothelial cells injured by bile duct ligation, 2 h",increase
